PMC6600665, “Identification and Characterization of Approved Drugs and Drug-Like Compounds as Covalent Escherichia coli ClpP Inhibitors” (International Journal of Molecular Sciences, 2019)
Like-named read-outs stand apart in the source and are kept apart here.

Assays:
E. coli ClpP [1] = biological target: T1, E. coli ClpP (Escherichia coli, UniProt P0A6G7); assay: Surface plasmon resonance binding to immobilized ClpP; settings: 80 µM, injected over 7 min, 30 min dissociation
T1 construct: His-tag; made in house; host or cells: E. coli SG1146a
Description: E. coli ClpP (80 μg/mL) protein was immobilized, using amine coupling (SPR-AS-HCA-03, Bruker Daltonics Inc., Billerica, MA, USA), onto the surface of the sensor chip of a SIERRA SPR-16 instrument (Bruker Daltonics GmbH, Bremen, Germany). ClpP protein was dissolved in acetate at pH 4. The running buffer contained 150 mM NaCl, 10 mM Hepes, 3 mM EDTA, and 0.05% (v/v) Tween-20. The flow rate for protein immobilization was 10 μL/min. Binding experiments were carried out using running buffer with the addition of 0.8% (v/v) of DMSO and 80 µM test substance (flow rate of 20 μL/min for 7 min and up to 30 min of dissociation time). […] SPR data were analyzed using the Analyzer 3 software (Bruker Daltonics GmbH), which includes algorithms for subtracting reference signals and accounting for non-specific interactions between the solvent and the sensor chip surface.

bovine α-chymotrypsin = biological target: T2, bovine α-chymotrypsin (Bos taurus, UniProt P00766); assay: Serine protease selectivity assay with bovine α-chymotrypsin (Suc-LY-AMC); format: biochemical; settings: 200 μM compound concentration
T2 construct: purchased Sigma-Aldrich C4129
Description: Compound selectivity was assessed using bovine α-chymotrypsin (#C4129, Sigma-Aldrich, St. Louis, MO, USA) at 200 µM. The assay was carried out as described above, except that 1 ng/μL of α-chymotrypsin and 100 μM of Suc-LY-AMC substrate were dissolved in a buffer containing 150 mM NaCl, 10 mM CaCl2, 50 mM Tris-HCl, and 0.05% Brij® 35.

E. coli ClpP [2] = biological target: T1, E. coli ClpP; assay: Fluorescence-based E. coli ClpP proteolytic activity assay (Suc-LY-AMC), primary screen and dose-response; format: biochemical; settings: for E. coli ClpP inhibition [%] in the primary screen: 200 µM
Description: Briefly, 25 ng/μL of E. coli ClpP dissolved in a buffer containing 100 mM NaCl, 100 mM 4-(2-hydroxyethyl)-1-piperazineethanesulfonic acid (HEPES) pH 7.5, and 0.05% Brij® 35 were transferred into each well. Test compound addition (final concentration 200 µM) was carried out using an Echo® 550 liquid handling system (Labcyte, Sunnyvale, CA, USA). […] Changes in fluorescence (excitation 350 nm, emission 435 nm) were monitored at 1 min intervals at 30 °C over 1 h using an Infinite M1000 microplate reader (Tecan).
The assay was carried out as described above with increasing concentrations of test compounds. Dose-response experiments were done at least 3 times independently, each in technical triplicates.
Calculation of Z prime (Z’) for HTS assay performance was done according to Zhang et al.. Plates were considered for further analyses if Z’ > 0.6 [26].

[3] = test system: E. coli BW25-113 (wild type); assay: Growth delay under nitric oxide stress (DPTA NONOate) in M9 medium, wild type; format: cell-based; settings: WT E. coli, both tested concentrations (50 and 100 μM), M9 minimal medium
Description: (§1) Assessment of E. coli growth delay in presence of nitric oxide stress was carried out following our recently published protocol, which is an adaptation of the method reported by Robinson and Brynildsen to a 96-well plate format. Fresh MHB medium was inoculated with isolated colonies of E. coli BW25-113 or E. coli JW0427-1, grown on Luria Agar, and left overnight in a shaking incubator (250 rpm) at 37 °C. On the following day, the overnight culture was used to inoculate fresh M9 medium (supplemented with 10 mM glucose) 1:100, and was grown until OD600 ~0.3. Afterwards, the culture was transferred into 96-well, flat-bottom, sterile clear plates (#167008, Nunc, VWR). Bacterial OD600 was adjusted to 0.1 with M9 medium (supplemented with 10 mM glucose). Test compounds were transferred into the 96-well plates, followed by addition of the bacterial culture. Nitric oxide stress was induced by addition of 2 mM DPTA NONOate ((Z)-1-[N-(3-aminopropyl)-N-(3-ammoniopropyl)amino]diazen-1-ium-1,2-diolate, Cayman Chemical, Ann Arbor, MI, USA), dissolved in NaOH (final concentration 0.14 mM). Absorbance measurements (600 nm) were done with a Multiskan GO or Varioskan LUX plate reader (Thermo Fisher Scientific, Finland) at hourly intervals for 24 h. Between measurements, plates were incubated in a shaking incubator (500 rpm) at 37 °C.

A549 cells = assay: in vitro; format: cell-based
Description: (§2) Potential cell toxicity of the tested compounds was evaluated by ATP quantification using the CellTiter-Glo® luminescent cell viability assay (Promega, Madison, WI, USA). […] After incubation, 20 µL of CellTiter-Glo® reagent were added per well and incubated at room temperature in the dark for another 30 min. Luminescence was quantified by an EnVision multi-plate reader (PerkinElmer, Rodgau, Germany).

HTC-116 cells = assay: in vitro; format: cell-based
Description: as §2

MCF-7 cells = assay: in vitro; format: cell-based
Description: as §2

[4] = test system: E. coli BW25-113 (wild type); assay: Antibacterial growth inhibition assay in MHB, wild type; format: cell-based; settings: 24 h; for inhibition at 100 µM: Escherichia coli, read-out: Growth Inhibition (%)
Description: (§3) The potential of hit compounds to interfere with bacterial growth was evaluated in E. coli BW25-113 (wild type) and tolC-deficient strain E. coli JW5503 [34] (obtained from the NBRP-E. coli collection at the National Institute of Genetics, Mishima, Japan). The effect of the compounds on wild-type strain E. coli BW25-113 and the isogenic clpP-deficient E. coli JW0427-1 [34] (coli genetic stock center, New Haven, CT, USA) were measured in the presence of the efflux pump inhibitor Phe-Arg β-naphthylamide dihydrochloride (#P4157, Sigma-Aldrich, USA) at 25 μM. Single colonies of the bacterial strains from Mueller Hinton Agar culture were used to inoculate 5 mL of saline solution. The suspension was transferred into fresh, sterile Mueller Hinton broth (MHB) medium, resulting in a final concentration of 10^6 CFU/mL. Growth assays were carried out in 96-well, flat-bottom, sterile clear plates (#167008, Nunc, VWR, Radnor, PA, USA) and compounds were tested at 50 and 100 μM concentration (2% DMSO). Absorbance at 600 nm was measured using the Multiskan GO or Varioskan LUX plate reader (Thermo Fisher Scientific, Vantaa, Finland) for 24 h at hourly intervals. Between measurements, plates were incubated in a shaking incubator (500 rpm) at 37 °C.

E. coli JW0427 (ΔclpP) [5] = assay: Antibacterial growth inhibition assay in MHB, clpP-deficient strain; format: cell-based; settings: Escherichia coli, 24 h, read-out: Growth Inhibition (%)
Description: as §3

E. coli JW0427 (ΔclpP) [6] = assay: Growth delay under nitric oxide stress (DPTA NONOate) in M9 medium, clpP-deficient strain; format: cell-based; settings: clpP-deficient E. coli, DPTA NONOate, compared with cells without compound
Description: as §1

in vitro = format: cell-based; settings: human, 48 h incubation, 1:3 dilutions starting from 200 μM
Description: as §2

E. coli JW5503 (ΔtolC) = assay: Antibacterial growth inhibition assay in MHB, efflux pump-defective strain; format: cell-based; settings: Escherichia coli, 24 h, read-out: Growth Inhibition (%)
Description: as §3

[7] = read-out: E. coli ClpP inhibition [%] in the primary screen, primary screen, 200 µM
[8] = read-out: Inhibition (%) at 200 μM E. coli ClpP, 200 μM compound concentration
[9] = A549 cells, read-out: Cytotoxicity A549 IC50
[10] = HTC-116 cells, read-out: Cytotoxicity HTC-116 IC50
[11] = MCF-7 cells, read-out: Cytotoxicity MCF-7 IC50
[12] = E. coli WT, without PAβN, 100 μM, 37 °C, MHB

T1 sequence (P0A6G7 15-207): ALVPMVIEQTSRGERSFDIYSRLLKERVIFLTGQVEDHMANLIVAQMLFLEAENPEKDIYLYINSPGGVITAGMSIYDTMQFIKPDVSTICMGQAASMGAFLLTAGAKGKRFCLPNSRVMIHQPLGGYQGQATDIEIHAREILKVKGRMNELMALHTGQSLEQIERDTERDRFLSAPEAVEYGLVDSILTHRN

CC(C)C[C@H](NC(=O)[C@H](Cc1ccccc1)NC(=O)c1cnccn1)B(O)O [Bortezomib, bortezomib]
Covalent / irreversible binding to ClpP by SPR (E. coli ClpP [1]): covalent binding
SPR signal (resonance units, RU) (E. coli ClpP [1]): low change of absolute resonance unit
Inhibition (%) at 200 μM α-Chymotrypsin (bovine α-chymotrypsin): completely inhibited
inhibition at 200 µM (bovine α-chymotrypsin): 97.8%
IC50 (E. coli ClpP [2]): 0.04 µM
E. coli ClpP inhibition [%] in the primary screen (E. coli ClpP [2]): > 90%
inhibition at 200 µM (E. coli ClpP [2]; [7]): 100%
inhibition at 200 µM (E. coli ClpP [2]; [8]): 100%
Bacterial growth in absence of NO• stress [3]: did not show any effect
Cytotoxicity A549 Ratio (IC50 cytotoxicity/IC50 ClpP) (A549 cells): 0.005
Cytotoxicity HTC-116 Ratio (IC50 cytotoxicity/IC50 ClpP) (HTC-116 cells): 0.005
Cytotoxicity MCF-7 Ratio (IC50 cytotoxicity/IC50 ClpP) (MCF-7 cells): 1
inhibition at 100 µM [4]: 55%
inhibition at 100 µM (E. coli JW0427 (ΔclpP) [5]): 100%

O=c1oc(Cl)c(Cl)c2ccccc12 [3,4-DIC, 3,4-dichloroisocoumarin]
Covalent / irreversible binding to ClpP by SPR (E. coli ClpP [1]): covalent binding
Inhibition (%) at 200 μM α-Chymotrypsin (bovine α-chymotrypsin): completely inhibited
inhibition at 200 µM (bovine α-chymotrypsin): 101%
IC50 (E. coli ClpP [2]): 4.9 µM
E. coli ClpP inhibition [%] in the primary screen (E. coli ClpP [2]): > 90%
inhibition at 200 µM (E. coli ClpP [2]; [7]): 98.9%
inhibition at 200 µM (E. coli ClpP [2]; [8]): 98.9%
Bacterial growth in absence of NO• stress [3]: small growth delay
Growth delay in presence of nitric oxide stress (E. coli JW0427 (ΔclpP) [6]): did not show any significant effect
IC50 at 48 h (in vitro; [9]): 44.7 µM
IC50 at 48 h (in vitro; [10]): 45.1 µM
IC50 at 48 h (in vitro; [11]): 9.06 µM
Cytotoxicity A549 Ratio (IC50 cytotoxicity/IC50 ClpP) (A549 cells; A549): 9.12
Cytotoxicity HTC-116 Ratio (IC50 cytotoxicity/IC50 ClpP) (HTC-116 cells; HTC-116): 9.2
Cytotoxicity MCF-7 Ratio (IC50 cytotoxicity/IC50 ClpP) (MCF-7 cells; MCF-7): 1.85
Growth Inhibition (%) [4, 12]: did not show any intrinsic antimicrobial activities

CO[C@@]1(NC(=O)CSCC#N)C(=O)N2C(C(=O)O)=C(CSc3nnnn3C)CS[C@@H]21 [Cefmetazole, cefmetazole]
Inhibition (%) at 200 μM α-Chymotrypsin (bovine α-chymotrypsin): no inhibition
inhibition at 200 µM (bovine α-chymotrypsin): 0%
IC50 (E. coli ClpP [2]): 3.4 µM
E. coli ClpP inhibition [%] in the primary screen (E. coli ClpP [2]): > 90%
inhibition at 200 µM (E. coli ClpP [2]; [7]): 94.5%
inhibition at 200 µM (E. coli ClpP [2]; [8]): 94.5%
IC50 at 48 h (in vitro; [9]): 250 µM
IC50 at 48 h (in vitro; [10]): 5430 µM
IC50 at 48 h (in vitro; [11]): 74.1 µM
Cytotoxicity A549 Ratio (IC50 cytotoxicity/IC50 ClpP) (A549 cells; A549): 73.53
Cytotoxicity HTC-116 Ratio (IC50 cytotoxicity/IC50 ClpP) (HTC-116 cells; HTC-116): 1597.06
inhibition at 100 µM [4, 12]: 100%
inhibition at 100 µM (E. coli JW5503 (ΔtolC)): 100%
inhibition at 100 µM (E. coli JW0427 (ΔclpP) [5]): 100%
